Laboratory results as given in patent US20080009025A1, “PROTEIN KINASE REGULATION” (priority 1999, published 2008).
Where a SMILES comes first, the peptide text is derived from it.

Assays:
PDK1 [1] = target: T1, PDK1 (Homo sapiens, UniProt O15530, K115A); assay: Surface plasmon resonance binding of PDK1 to PIF / immobilised PIFtide; details: immobilised biotinylated peptide; PDK1 K115A
T1 construct: Full length PDK1 (residues 1-556); made in house; host or cells: 293 cells
T1 sequence (O15530 1-556 K115A): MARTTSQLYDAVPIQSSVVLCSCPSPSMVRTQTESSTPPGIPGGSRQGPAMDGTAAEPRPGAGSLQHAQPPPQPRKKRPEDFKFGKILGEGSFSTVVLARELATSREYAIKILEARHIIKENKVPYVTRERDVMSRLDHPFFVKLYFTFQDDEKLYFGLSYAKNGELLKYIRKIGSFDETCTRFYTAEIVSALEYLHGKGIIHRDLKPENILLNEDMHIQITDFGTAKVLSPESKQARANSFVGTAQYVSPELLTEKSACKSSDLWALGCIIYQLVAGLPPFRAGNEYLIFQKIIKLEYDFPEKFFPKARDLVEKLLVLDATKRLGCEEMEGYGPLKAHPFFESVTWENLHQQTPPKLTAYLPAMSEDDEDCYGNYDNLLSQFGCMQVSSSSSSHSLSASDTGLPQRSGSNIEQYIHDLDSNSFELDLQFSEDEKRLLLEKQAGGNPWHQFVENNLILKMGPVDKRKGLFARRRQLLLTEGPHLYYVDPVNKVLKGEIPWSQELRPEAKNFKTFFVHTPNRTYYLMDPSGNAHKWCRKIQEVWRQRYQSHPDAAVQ
Description: (§1) It is preferred that the interaction can be detected using a surface plasmon resonance method, as described in Example 1 or 2 and in Balendran et al (1999), supra and GB9906245.7, supra. The interacting polypeptide may be immobilised on the test surface, for example it can be coupled through amino groups to a SensorChip CM5™, according to the manufacturer's instructions, or a biotinylated polypeptide can be bound to an avidin coated SensorChip SA. The protein kinase (at concentrations between, for example 0 and […], for example 2 μM) is then injected over the surface and steady state binding determined in each case. From these measurements a Kd can be determined. […] Alternatively, a Kd can be determined for a polypeptide in competition with the immobilised polypeptide. The protein kinase (for example at a concentration of 0.5 μM) is mixed with free polypeptide (for example, at concentrations between 0 and 3 μM) and the mixture injected over the immobilised polypeptides. The steady state binding is determined in each case, from which the Kd of the interaction can be determined using the […] relationship. Alternatively, the interaction may be expressed in terms of an observed response or relative observed responses, measured in terms of mass of protein bound to the surface, as described in Example 2. For example, the polypeptide may be immobilised by amino coupling to a SensorChip CM5 and each protein kinase (for example different mutated protein kinases, as discussed below) for example at a concentration of 1.0 μM, injected over the immobilised polypeptide. Alternatively, the polypeptide may be immobilised on a SA SensorChip and each protein kinase, for example at a concentration of 40 nM injected over the immobilised polypeptide. The steady state response for each protein kinase is determined, for example expressed in Response Units (RU). 1000 RU corresponds to 1 ng/mm^2 of protein bound to the surface. A response of less than 10 RU may indicate that no interaction has taken place. A response of at least 10 RU may indicate that the immobilised and injected molecules interact with each other.
(§2) FIG. 9. Effect of mutation of conserved residues in the PIF-binding pocket of PDK1 on the ability to interact with PIF. 293 cells were transiently transfected with DNA constructs expressing GST-PIF and either wild type Myc-PDK1 or the indicated mutants of PDK1. 36 h post transfection the cells were lysed and GST-PIF purified by affinity chromatography on glutathione-Sepharose beads. 2 μg of each protein was electrophoresed on a 10% SDS/polyacrylamide gel and either stained with Coomassie blue (A and E) or immunoblotted using an anti Myc antibody to detect Myc-PDK1 (B and F). To establish that the wild type PDK1 and mutant proteins were expressed at a similar level, 10 μg of total cell lysate was electrophoresed on a 10% SDS/polyacrylamide gel and immunoblotted using anti-Myc antibodies (C and G). Duplicates of each condition are shown. Similar results were obtained in 3 to 5 separate experiments. (D) Surface Plasmon Resonance measurements were carried out in a BiaCore instrument as described in the Methods to measure the interaction of wild type and mutant GST-PDK1 preparations with the 24 residue synthetic peptide whose sequence encompasses the PDK1 binding site on PIF termed PIFtide [24: Example 2]. […]
(§3) Binding was analysed directly by surface plasmon resonance in an upgraded Bia-Lite™ system. […]

PDK1 [2] = assay: as above; design: species or system human
Description: as §1, §2, §3

PDK1 [3] = assay: Activation of AGC kinase substrates by PDK1 (Crosstide assay); format: biochemical, human; details: for inhibition of the activation of S6K1-T2[T412E] and SGK1[T422D] by PDK1 PIF pocket mutants: PDK1[K115A], [I119A], [Q150A], [L155A]
Procedure: FIG. 20. Effect of PIFtide on the activation of S6K1 and SGK1 by PDK1 PIF pocket mutants (155A, 115A, 119A, 150A). GST-PDK1, GST-PDK1 L155E, 155A, 115A, 119A and 150A were tested for their ability to activate His-S6K1 412E and GST-SGK1 422D. The phosphorylation and activation of substrates was performed as described in FIG. 17. When PIFtide was included in the reaction, it was pre-incubated on ice for ˜15 min until the reaction was initiated with the addition of ATP-Mg.
Activation of AGC kinase PDK1 substrates. Phosphorylation reactions were carried out as above except that non-radioactive ATP replaced [γ-^32P]ATP. Following 10 min at 30° C., cocktail (30 μl) containing 50 mM Tris-HCl pH 7.5, 0.1% (by vol) 2-mercaptoethanol, 10 mM magnesium chloride, […], 0.5 μM microcystin-LR and 100 μM peptide substrate crosstide (GRPRTSSFAEG) and [γ-^32P]ATP (˜600 c.p.m./pmol). Reactions were stopped by the addition of 25 μl of 0.2 M EDTA pH 8.0, spotted onto P81 phosphocellulose paper, washed and analysed as described for the assay of MAP kinase. The amount of PDK1 was in the assay was varied so that the assay was in the linear range. One unit of activity is deficed as phosphorylation 1 nmol of substrate in 1 min.

## CC[C@H](C)[C@H](NC(=O)[C@H](Cc1ccc(O)cc1)NC(=O)[C@H](CC(=O)O)NC(=O)[C@H](Cc1ccccc1)NC(=O)[C@H](CC(=O)O)NC(=O)[C@H](CCCNC(=N)N)NC(=O)[C@H](Cc1ccccc1)NC(=O)[C@H](CCSC)NC(=O)[C@H](CCC(=O)O)NC(=O)[C@H](CCC(N)=O)NC(=O)[C@H](CCC(=O)O)NC(=O)[C@H](CCC(=O)O)NC(=O)[C@H](CCC(=O)O)NC(=O)[C@H](CO)NC(=O)[C@H](CC(C)C)NC(=O)[C@@H](NC(=O)[C@H](CCCNC(=N)N)NC(=O)[C@@H]1CCCN1C(=O)[C@H](CCC(=O)O)NC(=O)[C@@H](N)CCCNC(=N)N)[C@@H](C)CC)C(=O)N[C@@H](C)C(=O)N[C@@H](CC(=O)O)C(=O)N[C@@H](Cc1c[nH]c2ccccc12)C(=O)N[C@@H](CS)C(=O)O [PIFtide] (H-REPRILSEEEQEMFRDFDYIADWC-OH; N-terminus and C-terminus assumed)
PDK1 [1]
  interaction with K115A mutant of PDK1: interacted weakly
PDK1 [2]; PDK1 PIF pocket mutants vs wild type, unpublished data
  decreased affinity of PDK1[K115A], PDK1[I119A], PDK1[Q150A] and PDK1[L155A] for PIFtide: ~10 fold
PDK1 [2]; immobilised biotinylated peptide, PDK1 mutants L155S, L155D, L155E
  interaction with L155S, L155D and L155E mutants of PDK1: no detectable affinity
PDK1 [2]; immobilised biotinylated peptide, wild type GST-PDK1
  interaction with wild type GST-PDK1: high affinity interaction
PDK1 [3]; 2 μM PIFtide
  inhibition of the activation of S6K1[T412E] by wild type PDK1: > 20 fold
  inhibition of the activation of S6K1-T2[T412E] and SGK1[T422D] by PDK1 PIF pocket mutants: ~50%
PDK1 [3]; 35 μM PIFtide
  inhibition of the activation of S6K1-T2[T412E] and SGK1[T422D] by PDK1 PIF pocket mutants: over 95%
PDK1 [3]; in the presence of PIFtide
  PDK1's ability to phosphorylate and activate SGK1, ΔPH-PKBα, S6K1[T412E], SGK1[T422D] and ΔPH-PKBα[S473D]: markedly inhibited
